Assay results taken from US8389523B2, “Substituted quinoxaline and an agrochemical composition thereof” (Kumiai Chemical Industry Co., Ltd., priority 2007, dated 2013).

Assays:
Type in all cases: in vivo
Set-up in all cases: scale not given here
[1] = system: Scirpus juncoides Roxb. var. ohwianus. T. Koyama; experiment: Herbicidal effects in paddy field soil treatment (Test Example 1); details: for Herbicidal effects index, Scirpus juncoides Roxb. var. ohwianus. T. Koyama: paddy field soil treatment, 1000 g of the active ingredient per hectare, wettable powder added dropwise on water surface, 21st day after treatment
How it was run: (§1)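 Application rate 1000 g a.i./ha, delivered as water-diluted wettable powder onto flooded (3 cm) paddy soil one day after sowing. Plants kept in a greenhouse and evaluated for herbicidal effect on day 21 post-treatment.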

[2] = system: Monochoria vaginalis (Burm. f.) Presl var. plantaginea (Roxb.) Solms-Laub.; experiment: as above; details: for Herbicidal effects index, Monochoria vaginalis (Burm. f.) Presl var. plantaginea (Roxb.) Solms-Laub.: paddy field soil treatment, 1000 g of the active ingredient per hectare, wettable powder added dropwise on water surface, 21st day after treatment
How it was run: as §1

[3] = system: Echinochloa oryzicola Vasing; experiment: as above; details: for Herbicidal effects index, Echinochloa oryzicola Vasing: paddy field soil treatment, 1000 g of the active ingredient per hectare, wettable powder added dropwise on water surface, 21st day after treatment
How it was run: as §1

[4] = system: Amaranthus viridis L.; experiment: Herbicidal effects in upland field soil treatment (Test Example 2); details: 1000 g active ingredient per hectare, 21st day after treatment, criteria of Table 138
How it was run: (§2)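 Herbicidal effect graded 21 days after treatment, plants kept in greenhouse. Treatment was a soil-surface spray of wettable powder in water, 1000 g a.i./ha in 1000 L/ha, applied after sowing and covering seeds.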

[5] = system: Abutilon theophrasti medicus; experiment: as above; details: 1000 g active ingredient per hectare, 21st day after treatment, criteria of Table 138
How it was run: as §2

[6] = system: Amaranthus viridis L.; experiment: Herbicidal effects in upland field foliar treatment (Test Example 3); details: criteria of Table 138; for herbicidal effects on Amaranthus viridis L.: 1000 g of the active ingredient per hectare, 14th day after the treatment, wettable powder; for herbicidal effect (index) on Amaranthus viridis L.: 1000 g active ingredient per hectare, 14th day after treatment
How it was run: (§3)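 Foliar spray of diluted wettable powder, 1000 g a.i./ha in 1000 L/ha, onto two-week-old greenhouse-grown seedlings in upland field soil. Plants kept in the greenhouse, with effect rated on a criteria scale at day 14.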

[7] = system: Abutilon theophrasti medicus; experiment: as above; details: criteria of Table 138; for herbicidal effects on Abutilon theophrasti medicus: 1000 g of the active ingredient per hectare, 14th day after the treatment, wettable powder; for herbicidal effect (index) on Abutilon theophrasti medicus: 1000 g active ingredient per hectare, 14th day after treatment
How it was run: as §3

[8] = system: Echinochloa crus-galli (L.) P. Beauv. var. crus-galli; experiment: as above; details: criteria of Table 138; for herbicidal effects on Echinochloa crus-galli (L.) P. Beauv. var. crus-galli: 1000 g of the active ingredient per hectare, 14th day after the treatment, wettable powder; for herbicidal effect (index) on Echinochloa crus-galli (L.) P. Beauv. var. crus-galli: 1000 g active ingredient per hectare, 14th day after treatment
How it was run: as §3

[9] = paddy field soil treatment (Test Example 1), criteria of Table 138

## O=C1CCCC(O)=C1C(=O)c1nc2cccnc2n(Cc2cccc(C(F)(F)F)c2)c1=O [III-118]
[1]
  Herbicidal effects index, Scirpus juncoides Roxb. var. ohwianus. T. Koyama: 5
[2]
  Herbicidal effects index, Monochoria vaginalis (Burm. f.) Presl var. plantaginea (Roxb.) Solms-Laub.: 5
[3]
  Herbicidal effects index, Echinochloa oryzicola Vasing: 5
[4]
  herbicidal effect (index) on Amaranthus viridis L.: 5
[5]
  herbicidal effect (index) on Abutilon theophrasti medicus: 5
[6]
  herbicidal effects on Amaranthus viridis L.: 5
[7]
  herbicidal effects on Abutilon theophrasti medicus: 5
[8]
  herbicidal effects on Echinochloa crus-galli (L.) P. Beauv. var. crus-galli: 5

## COc1ccc2nc(C(=O)C3=C(O)CCCC3=O)c(=O)n(-c3ccc(F)cc3)c2c1 [II-304]
[1]
  Herbicidal effects index, Scirpus juncoides Roxb. var. ohwianus. T. Koyama: 5
[2]
  Herbicidal effects index, Monochoria vaginalis (Burm. f.) Presl var. plantaginea (Roxb.) Solms-Laub.: 5
[3]
  Herbicidal effects index, Echinochloa oryzicola Vasing: 5
[4]
  herbicidal effect (index) on Amaranthus viridis L.: 5
[5]
  herbicidal effect (index) on Abutilon theophrasti medicus: 5
[6]
  herbicidal effects on Amaranthus viridis L.: 5
[7]
  herbicidal effects on Abutilon theophrasti medicus: 5
[8]
  herbicidal effects on Echinochloa crus-galli (L.) P. Beauv. var. crus-galli: 4

## CCn1c(=O)c(C(=O)C2=C(O)CCCC2=O)nc2cccnc21 [III-7]
[1]
  Herbicidal effects index, Scirpus juncoides Roxb. var. ohwianus. T. Koyama: 5
[2]
  Herbicidal effects index, Monochoria vaginalis (Burm. f.) Presl var. plantaginea (Roxb.) Solms-Laub.: 5
[3]
  Herbicidal effects index, Echinochloa oryzicola Vasing: 5
[4]
  herbicidal effect (index) on Amaranthus viridis L.: 5
[5]
  herbicidal effect (index) on Abutilon theophrasti medicus: 5
[6]
  herbicidal effects on Amaranthus viridis L.: 5
[7]
  herbicidal effects on Abutilon theophrasti medicus: 5
[8]
  herbicidal effects on Echinochloa crus-galli (L.) P. Beauv. var. crus-galli: 4

## C#CCn1c(=O)c(C(=O)C2=C(O)CCCC2=O)nc2cccnc21 [III-35]
[1]
  Herbicidal effects index, Scirpus juncoides Roxb. var. ohwianus. T. Koyama: 5
[2]
  Herbicidal effects index, Monochoria vaginalis (Burm. f.) Presl var. plantaginea (Roxb.) Solms-Laub.: 5
[3]
  Herbicidal effects index, Echinochloa oryzicola Vasing: 4
[4]
  herbicidal effect (index) on Amaranthus viridis L.: 5
[5]
  herbicidal effect (index) on Abutilon theophrasti medicus: 5
[6]
  herbicidal effects on Amaranthus viridis L.: 5
[7]
  herbicidal effects on Abutilon theophrasti medicus: 5
[8]
  herbicidal effects on Echinochloa crus-galli (L.) P. Beauv. var. crus-galli: 4

## COc1ccc2nc(C(=O)C3=C(O)CCCC3=O)c(=O)n(-c3cc(F)c(OC)cc3F)c2c1 [II-254]
[1]
  Herbicidal effects index, Scirpus juncoides Roxb. var. ohwianus. T. Koyama: 5
[2]
  Herbicidal effects index, Monochoria vaginalis (Burm. f.) Presl var. plantaginea (Roxb.) Solms-Laub.: 5
[3]
  Herbicidal effects index, Echinochloa oryzicola Vasing: 5
[4]
  herbicidal effect (index) on Amaranthus viridis L.: 5
[5]
  herbicidal effect (index) on Abutilon theophrasti medicus: 4
[6]
  herbicidal effects on Amaranthus viridis L.: 5
[7]
  herbicidal effects on Abutilon theophrasti medicus: 4
[8]
  herbicidal effects on Echinochloa crus-galli (L.) P. Beauv. var. crus-galli: 5

## Cc1ccnc(-n2c(=O)c(C(=O)C3=C(O)CCCC3=O)nc3ccccc32)c1 [I-182]
[1]
  Herbicidal effects index, Scirpus juncoides Roxb. var. ohwianus. T. Koyama: 5
[2]
  Herbicidal effects index, Monochoria vaginalis (Burm. f.) Presl var. plantaginea (Roxb.) Solms-Laub.: 5
[3]
  Herbicidal effects index, Echinochloa oryzicola Vasing: 5
[4]
  herbicidal effect (index) on Amaranthus viridis L.: 5
[5]
  herbicidal effect (index) on Abutilon theophrasti medicus: 5
[6]
  herbicidal effect (index) on Amaranthus viridis L.: 5
[7]
  herbicidal effect (index) on Abutilon theophrasti medicus: 5
[8]
  herbicidal effect (index) on Echinochloa crus-galli (L.) P. Beauv. var. crus-galli: 5

## COc1cc(-n2c(=O)c(C(=O)C3=C(O)CCCC3=O)nc3ccccc32)ccc1C [II-168]
[1]
  Herbicidal effects index, Scirpus juncoides Roxb. var. ohwianus. T. Koyama: 5
[2]
  Herbicidal effects index, Monochoria vaginalis (Burm. f.) Presl var. plantaginea (Roxb.) Solms-Laub.: 5
[3]
  Herbicidal effects index, Echinochloa oryzicola Vasing: 5
[4]
  herbicidal effect (index) on Amaranthus viridis L.: 5
[5]
  herbicidal effect (index) on Abutilon theophrasti medicus: 5
[6]
  herbicidal effects on Amaranthus viridis L.: 5
[7]
  herbicidal effects on Abutilon theophrasti medicus: 5
[8]
  herbicidal effects on Echinochloa crus-galli (L.) P. Beauv. var. crus-galli: 4

## O=C1CCCC(O)=C1C(=O)c1nc2cc(F)ccc2n(-c2ccc3c(c2)OCO3)c1=O [II-239]
[1]
  Herbicidal effects index, Scirpus juncoides Roxb. var. ohwianus. T. Koyama: 5
[2]
  Herbicidal effects index, Monochoria vaginalis (Burm. f.) Presl var. plantaginea (Roxb.) Solms-Laub.: 5
[3]
  Herbicidal effects index, Echinochloa oryzicola Vasing: 5
[4]
  herbicidal effect (index) on Amaranthus viridis L.: 5
[5]
  herbicidal effect (index) on Abutilon theophrasti medicus: 5
[6]
  herbicidal effects on Amaranthus viridis L.: 5
[7]
  herbicidal effects on Abutilon theophrasti medicus: 5
[8]
  herbicidal effects on Echinochloa crus-galli (L.) P. Beauv. var. crus-galli: 4

## O=C1CCCC(O)=C1C(=O)c1nc2cccnc2n(-c2ccc(OC(F)F)cc2)c1=O [IV-95]
[1]; [9]
  herbicidal effect (index) on Scirpus juncoides Roxb. var. ohwianus. T. Koyama: 5
[2]; [9]
  herbicidal effect (index) on Monochoria vaginalis (Burm. f.) Presl var. plantaginea (Roxb.) Solms-Laub.: 5
[3]; [9]
  herbicidal effect (index) on Echinochloa oryzicola Vasing: 5
[4]
  herbicidal effect (index) on Amaranthus viridis L.: 5
[5]
  herbicidal effect (index) on Abutilon theophrasti medicus: 5
[6]
  herbicidal effects on Amaranthus viridis L.: 5
[7]
  herbicidal effects on Abutilon theophrasti medicus: 5
[8]
  herbicidal effects on Echinochloa crus-galli (L.) P. Beauv. var. crus-galli: 5

## CCOc1cc(-n2c(=O)c(C(=O)C3=C(O)CCCC3=O)nc3ccccc32)ccc1OC [II-217]
[1]
  Herbicidal effects index, Scirpus juncoides Roxb. var. ohwianus. T. Koyama: 5
[2]
  Herbicidal effects index, Monochoria vaginalis (Burm. f.) Presl var. plantaginea (Roxb.) Solms-Laub.: 5
[3]
  Herbicidal effects index, Echinochloa oryzicola Vasing: 4
[4]
  herbicidal effect (index) on Amaranthus viridis L.: 5
[5]
  herbicidal effect (index) on Abutilon theophrasti medicus: 5
[6]
  herbicidal effects on Amaranthus viridis L.: 5
[7]
  herbicidal effects on Abutilon theophrasti medicus: 5
[8]
  herbicidal effects on Echinochloa crus-galli (L.) P. Beauv. var. crus-galli: 4

## O=C1CCCC(O)=C1C(=O)c1nc2ccccc2n(CC(F)(F)F)c1=O [I-40]
[1]
  Herbicidal effects index, Scirpus juncoides Roxb. var. ohwianus. T. Koyama: 5
[2]
  Herbicidal effects index, Monochoria vaginalis (Burm. f.) Presl var. plantaginea (Roxb.) Solms-Laub.: 5
[3]
  Herbicidal effects index, Echinochloa oryzicola Vasing: 5
[4]
  herbicidal effect (index) on Amaranthus viridis L.: 5
[5]
  herbicidal effect (index) on Abutilon theophrasti medicus: 5
[6]
  herbicidal effect (index) on Amaranthus viridis L.: 5
[7]
  herbicidal effect (index) on Abutilon theophrasti medicus: 5
[8]
  herbicidal effect (index) on Echinochloa crus-galli (L.) P. Beauv. var. crus-galli: 5

## COc1ccc2nc(C(=O)C3=C(O)CCCC3=O)c(=O)n(-c3ccc(OC(F)F)cc3)c2c1 [II-305]
[1]
  Herbicidal effects index, Scirpus juncoides Roxb. var. ohwianus. T. Koyama: 5
[2]
  Herbicidal effects index, Monochoria vaginalis (Burm. f.) Presl var. plantaginea (Roxb.) Solms-Laub.: 5
[3]
  Herbicidal effects index, Echinochloa oryzicola Vasing: 5
[4]
  herbicidal effect (index) on Amaranthus viridis L.: 5
[5]
  herbicidal effect (index) on Abutilon theophrasti medicus: 5
[6]
  herbicidal effects on Amaranthus viridis L.: 5
[7]
  herbicidal effects on Abutilon theophrasti medicus: 5
[8]
  herbicidal effects on Echinochloa crus-galli (L.) P. Beauv. var. crus-galli: 5
